According to patent publication US5641780A, “Pyrrolo-indole derivatives” (priority 1994, dated 1997):
Read-outs that look alike come from different tables or passages of the source.

Assays:
[1] = tested on: HeLaS3 cells; experiment: Growth Inhibitory Effect Against HeLaS3 cells; assay type: cell-based
Description: HeLaS3 cells were suspended in MEM medium containing 10% fetal calf serum and 2 mM glutamine to a concentration of 2.67×10^4 cells/ml. The cell suspension thus prepared was put into wells of a 24-well culture plate in an amount of 0.75 ml per well. After the cells were incubated in a CO2 incubator overnight at 37° C., Compound (I) which had been appropriately diluted with a culture medium was added to each well in an amount of 0.25 ml.
The cells were further incubated in the CO2 incubator for 72 hours, and the culture supernatant was removed. Then, the cells were dispersed in a solution of trypsin and EDTA, and recovered. The number of the cells was counted using a cell counter. The concentration of Compound (I) at which the growth of the cells is inhibited by 50% was calculated by comparing the number of untreated cells with the number of the cells treated with Compound (I) at known concentrations, and the value was defined as IC50.

[2] = tested on: Sarcoma 180 tumor; experiment: Therapeutic Effect on Sarcoma 180 Tumor; assay type: in vivo, male ddY-strain mice; details: determined seven days after implantation; for response vs control in vivo at 0.5 mg/kg: read-out: T/C (average tumor volume treated / control), dose 0.50 mg/kg, intravenous, one day after implantation
Description: Five male ddY-strain mice each weighing 18-20 g were used for each group as test animals, and 5×10^5 Sarcoma 180 tumor cells were implantedat the axilla subcutaneously. One day after the implantation, 0.2 ml of a physiological saline containing Compound (I) at the concentration shown in Table 3 was intravenously administered to each mouse. T/C [T: average tumor volume (mm^3) of the group treated with the test compound, C: average tumor volume (mm^3) of the control group (to which 0.2 ml of a physiological saline was intravenously administered)] was determined seven days after the implantation.

[3] = tested on: ddY-strain male mice; experiment: Acute toxicity (minimum lethal dose); assay type: in vivo; details: intravenous, mortality at 14 days after administration
Description: Compound (I) was intravenously administered to ddY-strain male mice each weighing 20±1 g. MLD (minimum lethal dose) was determined by observing the mortality at 14 days after administration.

[4] = Homo sapiens, HeLa S3, 72 h, read-out: IC50, growth inhibition of HeLaS3 cells, 72 hours, 37° C., cell counter
[5] = Mus musculus, Sarcoma-180, iv, 168 h
[6] = Mus musculus, Sarcoma-180, iv, 168 h, read-out: T/C (average tumor volume treated / control), dose 8.0 mg/kg, intravenous, one day after implantation
[7] = Homo sapiens, HeLa S3, 72 hours, 37° C., cell counter, read-out: IC50, growth inhibition of HeLaS3 cells
[8] = Mus musculus, Sarcoma-180, iv, 168 h, read-out: T/C (average tumor volume treated / control), dose 2.0 mg/kg, intravenous, one day after implantation
[9] = Mus musculus, Sarcoma-180, 168 h, dose 8.0 mg/kg, intravenous, one day after implantation, read-out: T/C (average tumor volume treated / control)
[10] = read-out: IC50, growth inhibition of HeLaS3 cells, 72 hours, 37° C., cell counter
[11] = Mus musculus, Sarcoma-180, iv, 168 h, read-out: T/C (average tumor volume treated / control), dose 4.0 mg/kg, intravenous, one day after implantation
[12] = Mus musculus, Sarcoma-180, 168 h, dose 2.0 mg/kg, intravenous, one day after implantation, read-out: T/C (average tumor volume treated / control)
[13] = Mus musculus, Sarcoma-180, 168 h, dose 4.0 mg/kg, intravenous, one day after implantation, read-out: T/C (average tumor volume treated / control)

Row | Compound | IC50 [1, 4] | MLD (minimum lethal dose) [3] | IC50 [1, 7] | also measured
1 | COC(=O)Oc1cc2c(c3c(C(=O)OC)c(C)[nH]c13)C(CBr)CN2C(=O)c1cc2cc(OC)c(OC)c(OC)c2[nH]1 (stereo not shown) [Compound 7] | 0.082 nM | 0.50 mg/kg | – | response vs control in vivo at 0.5 mg/kg [2, 5]: 10%
2 | COC(=O)c1c(C)[nH]c2c(OC(=O)NN3CCC(N4CCCCC4)CC3)cc3c(c12)C(CBr)CN3C(=O)/C=C/c1ccc(OC)cc1 (stereo not shown) [Compound 32] | 0.8 nM | > 8.0 mg/kg | – | response vs control in vivo at 8 mg/kg [2, 6]: 10%
3 | COC(=O)c1c(C)[nH]c2c(OC(=O)c3nccnc3N)cc3c(c12)C(CBr)CN3C(=O)/C=C/c1ccc(OC)cc1 (stereo not shown) [Compound 21] | – | – | 0.38 nM | –
4 | CCN(CC)c1ccc(C(=O)Oc2cc3c(c4c(C(=O)OC)c(C)[nH]c24)C(CBr)CN3C(=O)/C=C/c2ccc(OC)cc2)cc1 (stereo not shown) [Compound 25] | 13 nM | 2.0 mg/kg | – | response vs control in vivo at 2 mg/kg [2, 8]: 14%
5 | COC(=O)c1c(C)[nH]c2c(OCc3ccccc3)cc3c(c12)C(CBr)CN3C(=O)c1cc2cc(OC)c(OC)c(OC)c2[nH]1 (stereo not shown) [Compound 1] | – | – | 5.1 nM | response vs control in vivo at 8 mg/kg [2, 9]: 19%
6 | COC(=O)c1c(C)[nH]c2c(OC(=O)NN3CCN(C)CC3)cc3c(c12)C(CBr)CN3C(=O)/C=C/c1ccc(OC)cc1 (stereo not shown) [Compound 37] | – | > 8.0 mg/kg | – | IC50 [1, 10]: 0.91 nM; T/C (average tumor volume treated / control) ([2]; dose 8.0 mg/kg, intravenous, one day after implantation, 8 mg/kg): 0.27
7 | CNN(C)C(=O)Oc1cc2c(c3c(C(=O)OC)c(C)[nH]c13)C(CBr)CN2C(=O)/C=C/c1ccc(OC)cc1 (stereo not shown) [Compound 38] | 1.5 nM | 4.0 mg/kg | – | response vs control in vivo at 4 mg/kg [2, 11]: 14%
8 | COC(=O)c1c(C)[nH]c2c(OC(=O)N(C)N)cc3c(c12)C(CBr)CN3C(=O)/C=C/c1ccc(OC)cc1 (stereo not shown) [Compound 30] | 0.94 nM | 2.0 mg/kg | – | response vs control in vivo at 2 mg/kg [2, 8]: 22%
9 | COC(=O)c1c(C)[nH]c2c(OC(=O)c3cccc(N(C)C)c3)cc3c(c12)C(CBr)CN3C(=O)/C=C/c1ccc(OC)cc1 (stereo not shown) [Compound 24] | – | – | 0.43 nM | response vs control in vivo at 2 mg/kg [2, 12]: 31%
10 | COC(=O)c1c(C)[nH]c2c(OC(=O)NN3CCOCC3)cc3c(c12)C(CBr)CN3C(=O)/C=C/c1ccc(OC)cc1 (stereo not shown) [Compound 20] | – | – | 6.7 nM | –
11 | COC(=O)c1c(C)[nH]c2c(OC(=O)Oc3ccccc3)cc3c(c12)C(CBr)CN3C(=O)c1cc2cc(OC)c(OC)c(OC)c2[nH]1 (stereo not shown) [Compound 8] | 0.051 nM | 0.50 mg/kg | – | response vs control in vivo at 0.5 mg/kg [2, 5]: 9%
12 | COC(=O)c1c(C)[nH]c2c(OC(C)=O)cc3c(c12)C(CBr)CN3C(=O)/C=C/c1ccc(OC)cc1 (stereo not shown) [Compound 14] | 0.31 nM | 2.0 mg/kg | – | response vs control in vivo at 4 mg/kg [2, 11]: 22%
13 | COC(=O)c1c(C)[nH]c2c(OC(=O)NN3CCN(C)CC3)cc3c(c12)C(CBr)CN3C(=O)/C=C/c1ccc(OC)cc1 (stereo not shown) [Compound 19] | – | > 8.0 mg/kg | – | IC50 [1, 10]: 0.53 nM; response vs control in vivo at 4 mg/kg [2, 11]: 26%
14 | COC(=O)c1c(C)[nH]c2c(OC(=O)NC(Cc3ccccc3)C(=O)O)cc3c(c12)C(CBr)CN3C(=O)c1cc2cc(OC)c(OC)c(OC)c2[nH]1 (stereo not shown) [Compound 11] | – | > 4.0 mg/kg | 0.17 nM | response vs control in vivo at 4 mg/kg [2, 13]: 7%
15 | COC(=O)c1c(C)[nH]c2c(OC)cc3c(c12)C(CBr)CN3C(=O)c1cc2cc(OC)c(OC)c(OC)c2[nH]1 (stereo not shown) [Compound 2] | – | – | 6.3 nM | response vs control in vivo at 8 mg/kg [2, 9]: 27%
16 | COC(=O)c1c(C)[nH]c2c(OC(=O)CSCC(=O)O)cc3c(c12)C(CBr)CN3C(=O)/C=C/c1ccc(OC)cc1 (stereo not shown) [Compound 33] | 0.33 nM | 2.0 mg/kg | – | response vs control in vivo at 2 mg/kg [2, 8]: 17%
17 | COC(=O)c1c(C)[nH]c2c(OC(=O)NN(C)C)cc3c(c12)C(CBr)CN3C(=O)/C=C/c1ccc(OC)cc1 (stereo not shown) [Compound 29] | – | 2.0 mg/kg | 0.43 nM | response vs control in vivo at 2 mg/kg [2, 12]: 18%
18 | COC(=O)c1c(C)[nH]c2c(OC(=O)c3ccc(CNC(=O)OC(C)(C)C)cc3)cc3c(c12)C(CBr)CN3C(=O)/C=C/c1ccc(OC)cc1 (stereo not shown) [Compound 34] | – | – | 0.52 nM | response vs control in vivo at 2 mg/kg [2, 12]: 28%
19 | COC(=O)c1c(C)[nH]c2c(OS(C)(=O)=O)cc3c(c12)C(CBr)CN3C(=O)c1cc2cc(OC)c(OC)c(OC)c2[nH]1 (stereo not shown) [Compound 4] | – | – | 4 nM | response vs control in vivo at 16 mg/kg ([2]; Mus musculus, Sarcoma-180, 168 h, dose 16 mg/kg, intravenous, one day after implantation, read-out: T/C (average tumor volume treated / control)): 20%
20 | COC(=O)c1c(C)[nH]c2c(OC(=O)NN3CCN(C)CC3)cc3c(c12)C(CBr)CN3C(=O)/C=C/c1ccc(OC)cc1 (stereo not shown) [Compound 18] | 0.54 nM | – | – | response vs control in vivo at 8 mg/kg [2, 6]: 18%
21 | COC(=O)c1c(C)[nH]c2c(OC(=O)c3ccc(CN4CCN(C)CC4)cc3)cc3c(c12)C(CBr)CN3C(=O)/C=C/c1ccc(OC)cc1 (stereo not shown) [Compound 28] | 0.83 nM | 2.0 mg/kg | – | response vs control in vivo at 2 mg/kg [2, 8]: 21%
22 | COC(=O)c1c(C)[nH]c2c(OC(=O)c3ccc(CN)cc3)cc3c(c12)C(CBr)CN3C(=O)/C=C/c1ccc(OC)cc1 (stereo not shown) [Compound 36] | – | – | 1 nM | response vs control in vivo at 4 mg/kg [2, 13]: 35%
23 | COC(=O)c1c(C)[nH]c2c(OC(=O)CN3CCC(N4CCCCC4)CC3)cc3c(c12)C(CBr)CN3C(=O)/C=C/c1ccc(OC)cc1 (stereo not shown) [Compound 40] | 0.29 nM | 2.0 mg/kg | – | –
24 | COC(=O)c1c(C)[nH]c2c(OC(=O)c3cccnc3)cc3c(c12)C(CBr)CN3C(=O)/C=C/c1ccc(OC)cc1 (stereo not shown) [Compound 16] | – | – | 0.4 nM | response vs control in vivo at 2 mg/kg [2, 12]: 33%
25 | COC(=O)c1c(C)[nH]c2c(OC(=O)SC)cc3c(c12)C(CBr)CN3C(=O)/C=C/c1ccc(OC)cc1 (stereo not shown) [Compound 15] | – | – | 0.43 nM | response vs control in vivo at 1 mg/kg ([2]; Mus musculus, Sarcoma-180, 168 h, dose 1.0 mg/kg, intravenous, one day after implantation, read-out: T/C (average tumor volume treated / control)): 36%
26 | COC(=O)c1c(C)[nH]c2c(OC(C)=O)cc3c(c12)C(CBr)CN3C(=O)c1cc2cc(OC)c(OC)c(OC)c2[nH]1 (stereo not shown) [Compound 6] | 0.13 nM | 0.25 mg/kg | – | response vs control in vivo at 0.5 mg/kg [2, 5]: 18%
27 | COC(=O)c1c(C)[nH]c2c(OC(=O)c3ccc(N)c(N)c3)cc3c(c12)C(CBr)CN3C(=O)/C=C/c1ccc(OC)cc1 (stereo not shown) [Compound 22] | – | – | 2.7 nM | –
28 | COC(=O)c1c(C)[nH]c2c(OC(=O)c3ccc(-n4cccc4)cc3)cc3c(c12)C(CBr)CN3C(=O)/C=C/c1ccc(OC)cc1 (stereo not shown) [Compound 26] | 1.7 nM | 2.0 mg/kg | – | response vs control in vivo at 2 mg/kg [2, 8]: 15%
29 | COC(=O)c1c(C)[nH]c2c(OC(=O)CN3CCN(C)CC3)cc3c(c12)C(CBr)CN3C(=O)/C=C/c1ccc(OC)cc1 (stereo not shown) [Compound 39] | 0.36 nM | 4.0 mg/kg | – | –
